Measured values taken from US20200129492A1, “TREATMENT OF CANCER WITH DIHYDROPYRIDINES” (MENRI GROUP LTD., priority 2017, published 2020).
Like-named read-outs stand apart in the source and are kept apart here. Blank lines part the entries; values can stand above or below the compound they belong to.

Columns and labels:
Format in all cases: cell-based
[1] = tested on: NSCLC A549 lung cancer cells; assay: XTT assay, cell proliferation after 72 hours incubation, IC50
Description: (§1) Example 10 (see also FIG. 10) is a study to determine the effect of the combination of calcium blockers on the proliferation of cancer cells. NSCLC A549 lung cancer cells were incubated with various concentrations of a combination of calcium blockers ranging from 1 μM to 50 μM. […] An XTT assay was then performed. The cell proliferation was then calculated. Results are representative of at least three independent experiments. IC50 was calculated from the % inhibition data.

[2] = tested on: NSCLC A549 lung cancer cells; assay: XTT assay, cell proliferation after 24 hours incubation
Description: Example 6 was a study to determine the effect of treatment with nitrendipine and the dihydropyridine of Formula IV above on the proliferation of cancer cells. NSCLC A549 lung cancer cells were incubated with various concentrations of nitrendipine and the dihydropyridine of Formula IV ranging from 1 μM to 100 μM. 5000 cells were plated in RPMI medium per well and incubated with either the individual drugs for 24 hours. An XTT assay was then performed. The cell proliferation was then calculated. FIG. 6 is a graphical representation of the results.
as §1, with “8 was” for “10 (see also FIG. 10) is”, “μM. In this specific example, the combination of loperamide and the dihydropyridine, nitrendipine, was used.” for “μM.”, “FIG. 8 is a graphical representation of” for “IC50 was calculated from”, “results.” for “% inhibition data.”
as §1, with “9” for “10 (see also FIG. 10)”, “μM. In this specific example, the combination of loperamide and the dihydropyridine, nicardipine, was used.” for “μM.”, “FIG. 9 is a graphical representation of” for “IC50 was calculated from”, “results.” for “% inhibition data.”

[3] = tested on: A549 lung cancer cells; assay: Intracellular free calcium, Fura-2-AM fluorescence measurement
Description: The intracellular free calcium measurement was done using Fura-2-AM fluorescence measurement. […] Ionomycin was used as the positive control for stimulation of calcium entry. Calcium was removed from the medium at the end of each experiment via addition of EGTA or replacement of the medium with calcium free medium. The calculation of the absolute calcium concentration was performed using a standard calcium curve. An average of 15 cells is shown.
The intracellular free calcium measurement was done using Fura-2-AM fluorescence measurement. […] The calculation of the absolute calcium concentration was performed using a standard calcium curve. An average of 15 cells is shown.
The intracellular free calcium measurement was done using Fura-2-AM fluorescence measurement. […] Ionomycin was used as the positive control for stimulation of calcium entry.

[4] = tested on: A549 lung cancer cells; assay: XTT assay, cell proliferation 48 hours after addition; settings: increasing concentrations
Description: An XTT assay was performed 48 hours after the addition of nitrendipine at increasing concentrations. The cell proliferation was then calculated. Results are representative of at least three independent experiments. The results are illustrated in FIG. 1B. […] Without limitation by theory, it is theorized that nitrendipine lethally flooded the cells with calcium at the noted concentrations.
(§2) An XTT assay was performed 48 hours after the addition of nicardipine at increasing concentrations. The cell proliferation was then calculated. Results are representative of at least three independent experiments. The results are illustrated in FIG. 2B. […] Without limitation by theory, it is theorized that the nicardipine-initiated block of the entry of extracellular free calcium inhibits the cell's ability to undergo or successfully finish cytokinesis, and this may lead to cell death.
as §2, with “nisoldipine” for “nicardipine”, “4B.” for “2B.”, “nisoldipine-initiated” for “nicardipine-initiated”, “cytokinesis” for “cytokinesis,”
as §2, with “The” for “An XTT assay was performed 48 hours after the addition of nicardipine at increasing concentrations. The”, “7B.” for “2B.”, “loperamide-initiated” for “nicardipine-initiated”

[5] = Homo sapiens, A549, compound alone plus DMSO, 72 hours, read-out: Plus DMSO (Control), IC-50
[6] = read-out: Plus Loperamide, IC-50, in combination with loperamide (5 uM per FIG. 10), 72 hours
[7] = compound alone plus DMSO, 72 hours

IC50 [1, 5]: 13.7 µM | IC50 [1, 6]: 6.7 µM
Structure (SMILES): COC(=O)C1=C(C)NC(C)=C(C(=O)OCCN(C)Cc2ccccc2)C1c1cccc([N+](=O)[O-])c1 (centres unmarked) [Nicardipine, 2-[benzyl(methyl)amino]ethylmethyl-2,6-dimethyl-4-(3-nitrophenyl)-1,4-dihydropyridine-3,5-dicarboxylate]
Avg. % proliferation ([2]; Example 9, 1 μM): 99.90% | Avg. % proliferation ([2]; Example 9, 5 μM): 100.23% | Avg. % proliferation ([2]; Example 9, 10 μM): 86.20% | Avg. % proliferation ([2]; Example 9, 50 μM): 32.97%

IC50 [1, 5]: 8.5 µM | IC50 [1, 6]: 4.8 µM
Structure (SMILES): CC1=C(C(=O)OC(C)C)C(c2cccc([N+](=O)[O-])c2)C(C(=O)OC2CN(C(c3ccccc3)c3ccccc3)C2)=C(N)N1 (centres unmarked) [Azelnidipine]

IC50 [1, 5]: 17.6 µM
Structure (SMILES): COC(=O)C1=C(C#N)NC(C)=C(C(=O)OC(C)C)C1c1cccc([N+](=O)[O-])c1 (centres unmarked) [Nilvadipine]

IC50 ([1]; Homo sapiens, A549, 72 h, read-out: Plus DMSO (Control), IC-50): 5.37 µM | IC50 ([1]; read-out: Plus Loperamide, IC-50): 3.12 µM
Structure (SMILES): COC(=O)C1=C(C)NC(C)=C(C(=O)OCCCN2CCC(c3ccccc3)(c3ccccc3)CC2)[C@H]1c1cccc([N+](=O)[O-])c1 [Niguldipine]

IC50 [1, 5]: 18 µM
Structure (SMILES): COC(=O)C1=C(C)NC(C)=C(C(=O)OC2CCCN(Cc3ccccc3)C2)C1c1cccc([N+](=O)[O-])c1 (centres unmarked) [Benidipine]

IC50 [1, 5]: 8.2 µM
Structure (SMILES): COC(=O)C1=C(C)NC(C)=C(C(=O)OCCN2CCN(C(c3ccccc3)c3ccccc3)CC2)C1c1cccc([N+](=O)[O-])c1 (centres unmarked) [Manidipine]

IC50 [1, 5]: 10.2 µM
Structure (SMILES): CC1=C(C(=O)OCCN(Cc2ccccc2)c2ccccc2)C(c2cccc([N+](=O)[O-])c2)C(P2(=O)OCC(C)(C)CO2)=C(C)N1 (centres unmarked) [Efonidipine]

IC50 [1, 5]: 7.7 µM | IC50 [1, 6]: 3.95 µM
Structure (SMILES): COC(=O)C1=C(C)NC(C)=C(C(=O)OC(C)(C)CN(C)CCC(c2ccccc2)c2ccccc2)C1c1cccc([N+](=O)[O-])c1 (racemic) [Lercanidipine]

The remaining lines, values behind:

Structure (SMILES): CCCC(=O)OCOC(=O)C1=C(C)NC(C)=C(C(=O)OC)C1c1cccc(Cl)c1Cl (centres unmarked) [Clevidipine]
IC50 [1, 5]: 23 µM

Structure (SMILES): COC(=O)C1=C(C)NC(C)=C(C(=O)OC(C)C)C1c1cccc2nonc12 (centres unmarked) [Isradipine]
IC50 [1, 5]: 26 µM

Structure (SMILES): CCOC(=O)C1=C(C)NC(C)=C(C(=O)OC)C1c1cccc([N+](=O)[O-])c1 (racemic) [Nitrendipine, (RS)-3-Ethyl 5-methyl 2,6-dimethyl-4-(m-nitrophenyl)-1,4-dihydropyridine-3,5-dicarboxylate]
Avg. % proliferation ([2]; Example 6, 1 μM): 86.24% | Avg. % proliferation ([2]; Example 6, 5 μM): 87.19% | Avg. % proliferation ([2]; Example 6, 10 μM): 75.97% | Avg. % proliferation ([2]; Example 6, 50 μM): 52.21% | Avg. % proliferation ([2]; Example 6, 100 μM): 24.42% | Avg. % proliferation ([2]; Example 8, 1 μM): 102.33% | Avg. % proliferation ([2]; Example 8, 5 μM): 93.35% | Avg. % proliferation ([2]; Example 8, 10 μM): 102.58% | Avg. % proliferation ([2]; Example 8, 50 μM): 71.43% | effect on intracellular free calcium ([3]; 1 μM and 5 μM treatments): functions as an agonist for the entry of extracellular calcium | concentration of intracellular calcium versus positive control (ionomycin) ([3]; 5 μM treatment): greater than that of the positive control | effect on intracellular free calcium ([3]; consecutive treatments with nitrendipine and nicardipine, 20 μM each): floods the cells with calcium | percentage of cell growth [4]: decreases as the concentration of nitrendipine is increased

Structure (SMILES): CCOC(=O)C1=C(COCCN)NC(C)=C(C(=O)OC)C1c1ccccc1Cl (centres unmarked) [Amlodipine]
IC50 [1, 5]: 22 µM

Structure (SMILES): COCCOC(=O)C1=C(C)NC(C)=C(C(=O)OC/C=C/c2ccccc2)C1c1cccc([N+](=O)[O-])c1 (centres unmarked) [Clinidipine]
IC50 ([1]; read-out: Plus DMSO (Control), IC-50): 41 µM

Structure (SMILES): CCOC(=O)C1=C(C)NC(C)=C(C(=O)OC)C1c1cccc(Cl)c1Cl (centres unmarked) [Felodipine]
IC50 [1, 5]: 26 µM

Structure (SMILES): COc1ccc([C@@H]2Sc3ccccc3N(CCN(C)C)C(=O)[C@@H]2OC(C)=O)cc1 [Diltiazem]
Plus DMSO (Control), IC-50 [1, 7]: No Activity

Structure (SMILES): COC(=O)C1=C(C)NC(C)=C(C(=O)OCC(C)C)C1c1ccccc1[N+](=O)[O-] (centres unmarked) [nisoldipine, isobutyl methyl 2,6-dimethyl4-(2-nitrophenyl)-1,4-dihydropyridine-3,5-dicarboxylate]
effect on intracellular free calcium ([3]; 5 μM and 10 μM treatments): blocks the influx of extracellular calcium | percentage of cell growth [4]: decreases as the concentration of nisoldipine is increased

Structure (SMILES): CCOC(=O)C1=C(C)NC(C)=C(C(=O)OCC)C1c1ccccc1/C=C/C(=O)OC(C)(C)C [Lacidipine]
IC50 [1, 5]: 16 µM

Structure (SMILES): COC(=O)C1=C(C)NC(C)=C(C(=O)OC)C1c1ccccc1[N+](=O)[O-] [Nifedipine]
Plus DMSO (Control), IC-50 [1, 7]: No Activity

Structure (SMILES): COc1ccc(CCN(C)CCCC(C#N)(c2ccc(OC)c(OC)c2)C(C)C)cc1OC (centres unmarked) [Verapamil]
Plus DMSO (Control), IC-50 [1]: No Activity

Structure (SMILES): CCOC(=O)C1=C(C)NC(C)=C(C(=O)OC)C1c1ccccc1 (centres unmarked) [Formula IV, 5-O-ethyl 3-O-methyl 2,6-dimethyl-4-phenyl-1,4-dihydropyridine-3,5-dicarboxylate]
Avg. % proliferation ([2]; Example 6, 5 μM): 96.4% | Avg. % proliferation ([2]; Example 6, 10 μM): 104.2% | Avg. % proliferation ([2]; Example 6, 50 μM): 79.06% | Avg. % proliferation ([2]; Example 6, 100 μM): 67.8% | effect on intracellular free calcium ([3]; 5 μM and 50 μM treatments): blocks the influx of extracellular calcium

Structure (SMILES): COCCOC(=O)C1=C(C)NC(C)=C(C(=O)OC(C)C)C1c1cccc([N+](=O)[O-])c1 (centres unmarked) [Nimodipine]
Plus DMSO (Control), IC-50 [1, 7]: No Activity

Structure (SMILES): CN(C)C(=O)C(CCN1CCC(O)(c2ccc(Cl)cc2)CC1)(c1ccccc1)c1ccccc1 [Loperamide, 4-[4-(4-Chlorophenyl)-4-hydroxypiperidin-1-yl]-N,N-dimethyl-2,2-diphenylbutanamide]
Avg. % proliferation ([2]; Example 8, 1 μM): 98.07% | Avg. % proliferation ([2]; Example 8, 5 μM): 99.77% | Avg. % proliferation ([2]; Example 8, 10 μM): 96.09% | Avg. % proliferation ([2]; Example 8, 50 μM): 34.04% | Avg. % proliferation ([2]; Example 9, 1 μM): 92.73% | Avg. % proliferation ([2]; Example 9, 5 μM): 86.97% | Avg. % proliferation ([2]; Example 9, 10 μM): 90.33% | Avg. % proliferation ([2]; Example 9, 50 μM): 32.03% | effect on intracellular free calcium ([3]; 5 μM and 50 μM treatments): blocks the influx of extracellular calcium | percentage of cell growth [4]: decreases as the concentration of loperamide is increased
